Some results are limits rather than exact numbers.

For assay [1], the system named is rat heart phosphodiesterase. Nature of the assay: Cyclic AMP phosphodiesterase inhibition (rat heart). It counts as biochemical. The protocol:
(§1) The inhibition of cyclic AMP phosphodiesterase activity by the subject compounds was assayed by the method of Filburn and Karn, Analyt. Biochem., 52:505-516 (1973), using 1 μM cyclic AMP as the substrate. Human platelet cyclic AMP phosphodiesterase was obtained from human donors. Platelets were isolated and washed by centrifugation, the membranes ruptured by a sequential freeze-thaw procedure and hypotonic lysis and the soluble enzyme isolated by high speed centrifugation. The enzyme was stored in aliquots at -20° C.
(§2) This table contains the IC50 values for human platelet phosphodiesterase and IC25 values for rat heart phosphodiesterase.

Assay [2] relates to Human platelet cyclic AMP phosphodiesterase. Nature of the assay: Cyclic AMP phosphodiesterase assay (human platelet). It counts as biochemical. The note with it: for IC50: human platelet phosphodiesterase, 1 μM cyclic AMP as substrate; for Relative Potency: relative to theophylline (assigned a value of 1) on human platelet phosphodiesterase. The protocol:
as §1, §2

The subject of assay [3] is Mongrel dogs. Description: Inotropic activity in anesthetized dogs. Format: in vivo. The following applies: dog. The protocol:
Mongrel dogs were anesthetized intravenously with 35 mg/Kg sodium pentobarbital and supplemented as needed. Blood pressure was measured with a Statham pressure transducer via a cannula inserted from a femoral artery into the abdominal aorta. Heart rate was recorded by a cardiotachometer from a lead II electrocardiogram. Right ventricular contractile force was recorded from a Walton-Brodie strain gauge sutured to the right ventricle following a midsternal thoracotomy. A Harvard respirator was used to ventilate the dogs with room air through an endotracheal tube. The dog was bilaterally vagotomized. Following a midline laparotomy, a cannula was sutured into the duodenum for intraduodenal administration of test compound. A femoral vein was cannulated for administration of isoproterenol. All data were recorded on a Beckman R611 Dynograph.
To assess the responsiveness of each dog, isoproterenol was given intravenously at half-log interval doses from 0.007 to 2.1 or 6.67 μg/Kg. The test compound was then administered intraduodenally, usually at a low dose of 2 mg/Kg and subsequently at higher doses of 6.32 and/or 20 mg/Kg, if necessary. In a few instances, some compounds administered intraduodenally at dose levels from 0.316 to 3.16 mg/Kg.

The IC50 is the concentration that gives 50% inhibition. As to `O=C1CN2Cc3cc(OCCCC(=O)N(C4CCCCC4)C4CCCCC4)ccc3N=C2N1` [N,N--dicyclohexyl (n = 3, position 7), N,N-dicyclohexyl-4-(2-oxo-1,2,3,5-tetrahydroimidazo[2,1-b]quinazolin-7-yl)oxybutyramide], the “Rat Heart IC25” value in assay [1] came out at 16 nM. In addition, in assay [2], the IC50 was found to be 0.0014 µM and the “Relative Potency” value is reported as 186,000.

With `O=C1CN2Cc3cc(OCCCC(=O)NC4CCCCC4)ccc3N=C2N1` [N--cyclohexyl (n = 3, position 7), N-cyclohexyl-4-(2-oxo-1,2,3,5-tetrahydroimidazo-[2,1-b]quinazolin-7-yl)oxybutyramide], the “Rat Heart IC25” value in assay [1] was 180 nM. Also, in assay [2], the IC50 was 0.072 µM and the “Relative Potency” value was 38,000.

With `CN(Cc1ccccc1)C(=O)CCCOc1ccc2c(c1)CN1CC(=O)NC1=N2` [N--methyl-N--benzyl (n = 3, position 7), N-benzyl-N-methyl-4-(2-oxo-1,2,3,5-tetrahydroimidazo[2,1-b]quinazolin-7-yl)oxybutyramide], the “Rat Heart IC25” value in assay [1] is on record as 240 nM. Moreover, in assay [2], the IC50 amounted to 0.026 µM and the “Relative Potency” value was 10,400.

In the case of `CN(C(=O)CCCOc1ccc2c(c1)CN1CC(=O)NC1=N2)c1ccccc1` [N--methyl-N--phenyl (n = 3, position 7), N-phenyl-N-methyl-4-(2-oxo-1,2,3,5-tetrahydroimidazo[2,1-b]quinazolin-7-yl)oxybutyramide], the “Rat Heart IC25” value in assay [1] is 350 nM. In assay [2], the IC50 turned out to be 0.026 µM and the “Relative Potency” value is listed as 10,400.

Consider `CN(C(=O)CCCOc1ccc2c(c1)CN1CC(=O)NC1=N2)C1CCCCCC1` [N-cycloheptyl-N-methyl-4-(2-oxo-1,2,3,5-tetrahydroimidazo[2,1-b]quinazolin-7-yl)oxybutyramide], for which the “Rat Heart IC25” value in assay [1] was under 10 nM. Also, in assay [2], the IC50 was 0.001 µM and the “Relative Potency” value is listed as 270,000.

Regarding `O=C1CN2Cc3cc(OCCCC(=O)N(CCO)C4CCCCC4)ccc3N=C2N1` [N-cyclohexyl-N-(2-hydroxyethyl)-4-(2-oxo-1,2,3,5-tetrahydroimidazo[2,1-b]quinazolin-7-yl)oxybutyramide], the “Rat Heart IC25” value in assay [1] is given as 70 nM. In assay [2], the IC50 amounted to 0.0125 µM and the “Relative Potency” value was 21,600.

Take `COCCN(C(=O)CCCOc1ccc2c(c1)CN1CC(=O)NC1=N2)C1CCCCC1` [N-cyclohexyl-N-(2-methoxyethyl)-4-(2-oxo-1,2,3,5-tetrahydroimidazo[2,1-b]quinazolin-7-yl)oxybutyramide]: the “Rat Heart IC25” value in assay [1] is under 10 nM. Besides, in assay [2], the IC50 is 0.0013 µM and the “Relative Potency” value is given as 208,000.

With `CCN(C(=O)CCCOc1ccc2c(c1)CN1CC(=O)NC1=N2)C1CCCCC1` [N-cyclohexyl-N-ethyl-4-(2-oxo-1,2,3,5-tetrahydroimidazo[2,1-b]quinazolin-7-yl)oxybutyramide], the “Rat Heart IC25” value in assay [1] is recorded as under 10 nM. In assay [2], the half-maximal inhibitory concentration (IC50) was found to be 0.0015 µM and the “Relative Potency” value was 180,000.

Take `CC(C)N(C(=O)CCCOc1ccc2c(c1)CN1CC(=O)NC1=N2)C1CCCCC1` [N-cyclohexyl-N-isopropyl-4-(2-oxo-1,2,3,5-tetrahydroimidazo[2,1-b]quinazolin-7-yl)oxybutyramide]: in assay [1], the “Rat Heart IC25” value is on record as 15 nM. In addition, in assay [2], the IC50 came out at 0.0032 µM and the “Relative Potency” value is given as 84,000.

With `CN(C(=O)COc1ccc2c(c1)CN1CC(=O)NC1=N2)C1CCCCC1` [N-cyclohexyl-N-methyl-2-(2-oxo-1,2,3,5-tetrahydroimidazo[2,1-b]quinazolin-7-yl)oxyacetamide], the “Rat Heart IC25” value in assay [1] is listed as 4,400 nM. Moreover, in assay [2], the IC50 amounted to 0.82 µM and the “Relative Potency” value is on record as 330.

Turning to `CN(C(=O)CCCOc1ccc2c(c1)CN1C(=N2)NC(=O)[C@H]1CO)C1CCCCC1` [N-cyclohexyl-N-methyl-4-(2-oxo-3-D-hydroxymethyl-1,2,3,5-tetrahydroimidazo[2,1-b]quinazolin-7-yl)oxybutyramide], the “Rat Heart IC25” value in assay [1] is given as 72 nM. In addition, in assay [2], half-maximal inhibition (IC50) was put at 0.0185 µM and the “Relative Potency” value is reported as 14,600.

Regarding `C[C@@H]1C(=O)NC2=Nc3ccc(OCCCC(=O)N(C)C4CCCCC4)cc3CN21` [N-cyclohexyl-N-methyl-4-(2-oxo-3-D-methyl-1,2,3,5-tetrahydroimidazo[2,1-b]quinazolin-7-yl)oxybutyramide], in assay [3] (i.v., 0.1 mg/kg), the “Blood Pressure, peak effect as % of max. isoproterenol” value (“Blood Pressure, peak effect as %” for short) is listed as 82%; the “Heart Rate, peak effect as % of max. isoproterenol” value (from here on “Heart Rate, peak effect as %”) is listed as 73%; the “Rt. Ventricular Contractile Force, peak effect as % of max. isoproterenol” value is recorded as 43%. In assay [3] (intraduodenal, 0.316 mg/kg), the “Blood Pressure, peak effect as %” value was 13%; the “Heart Rate, peak effect as %” value is reported as 18%; the “Rt. Ventricular Contractile Force, peak effect as % of max. isoproterenol” value is reported as 18%. Further, in assay [3] (intraduodenal, 1.0 mg/kg), the “Blood Pressure, peak effect as %” value came to 49%; the “Heart Rate, peak effect as %” value is reported as 48%; the “Rt. Ventricular Contractile Force, peak effect as % of max. isoproterenol” value is reported as 50%. Besides, in assay [3] (intraduodenal, 3.16 mg/kg), the “Blood Pressure, peak effect as %” value worked out at 82%; the “Heart Rate, peak effect as %” value is 72%; the “Rt. Ventricular Contractile Force, peak effect as % of max. isoproterenol” value was 53%. Further, in assay [1], the “Rat Heart IC25” value was determined as 27 nM. In assay [2], 0.0054 µM corresponded to half-maximal inhibition (IC50) and the “Relative Potency” value is given as 50,000.

With `CN(C(=O)CCCOc1ccc2c(c1)CN1C(=N2)NC(=O)[C@@H]1CO)C1CCCCC1` [N-cyclohexyl-N-methyl-4-(2-oxo-3-L-hydroxymethyl-1,2,3,5-tetrahydroimidazo[2,1-b]quinazolin-7-yl)oxybutyramide], the “Rat Heart IC25” value in assay [1] turned out to be 90 nM. In addition, in assay [2], the IC50 is 0.0275 µM and the “Relative Potency” value was 9,800.

Consider `CN(C(=O)CCCCOc1ccc2c(c1)CN1CC(=O)NC1=N2)C1CCCCC1` [N-cyclohexyl-N-methyl-5-(2-oxo-1,2,3,5-tetrahydroimidazo[2,1-b]quinazolin-7-yl)oxypentanamide], for which, in assay [1], the “Rat Heart IC25” value was 22 nM. Also, in assay [2], the IC50 was 0.0046 µM and the “Relative Potency” value is 58,700.

With `CN(C(=O)CCCCCOc1ccc2c(c1)CN1CC(=O)NC1=N2)C1CCCCC1` [N-cyclohexyl-N-methyl-6-(2-oxo-1,2,3,5-tetrahydroimidazo[2,1-b]quinazolin-7-yl)oxyhexanamide], in assay [1], the “Rat Heart IC25” value is on record as 21 nM. Moreover, in assay [2], the IC50 was found to be 0.012 µM and the “Relative Potency” value is on record as 22,500.

On to `CN(C(=O)CCCCCCOc1ccc2c(c1)CN1CC(=O)NC1=N2)C1CCCCC1` [N-cyclohexyl-N-methyl-7-(2-oxo-1,2,3,5-tetrahydroimidazo[2,1-b]quinazolin-7-yl)oxyheptanamide], for which the “Rat Heart IC25” value in assay [1] turned out to be 45 nM. Further, in assay [2], the midpoint of inhibition, the IC50, lay at 0.016 µM and the “Relative Potency” value is 16,800.

`CN(C(=O)CCCOc1ccc2c(c1)CN1CC(=O)NC1=N2)C(c1ccccc1)c1ccccc1` [N-diphenylmethyl-N-methyl-4-(2-oxo-1,2,3,5-tetrahydroimidazo[2,1-b]quinazolin-7-yl)oxybutyramide]: the “Rat Heart IC25” value in assay [1] is recorded as 60 nM. In assay [2], the half-maximal inhibitory concentration (IC50) worked out at 0.015 µM and the “Relative Potency” value is given as 18,000.
